Calls of active or inactive are those of the source.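 How the source made its calls: active means compounds giving half or more protection of infected cells from virus-caused growth loss, again on retest; inactive means the rest.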
System: CEM cells HIV-1 protection, formazan growth assay
Assay: NCI AIDS Antiviral Assay
Conditions: for IC50: measured here: growth of uninfected CEM cells
Summary of the method: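 Protection of CEM cells against HIV-1 measured as cell growth via soluble formazan read-out, with five concentrations tested on both infected and uninfected cells; failure to protect may reflect toxicity.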

SMILES	EC50 [µM]	IC50 [µM]	outcome
Cc1cc(C)nc(NC(=O)Nc2cccc(C(F)(F)F)c2)c1	> 200	> 200	
Cc1ccccc1C1(O)c2ccccc2Oc2ccccc21	> 200	13.8	
CSC1=N/C(=C\c2cccs2)C(=O)N1CN1CCCCC1	> 200	> 200	
CCC1=CCN(c2cc(C)ccn2)OC1c1ccc(OC)cc1 (stereo unspecified)	> 32.4	> 32.4	
N#Cc1c(N)sc(=S)c2c1CCCC2	> 22.4	> 22.4	
O=C(NNCC(F)(F)F)c1ccncc1	> 200	30.2	
C/C=C/CC(C)[C@@H](O)[C@H](NC)C(=O)O (stereo partly specified)			inactive
CCC1c2ccccc2[C@H]2C(c3ccccc3)=NN(c3ccccc3)[C@H]2N1CC (stereo partly specified)	> 200	56.2	
CCCc1cc(=O)oc2c3c(c4c(c12)OC(C)(C)C=C4)O[C@H](C)[C@@H](C)[C@H]3O	> 58.9	17.8	
COc1cc(O)c2c(c1)C(=O)c1cc3c(c(O)c1C2=O)C(OC1OC(C)C(O)C(O)C1OC)C(OC)C(C)(O)C3=O (stereo unspecified)	> 200	3.16	
CS(=O)(=O)NNS(=O)(=O)c1ccc(F)cc1	> 251	> 251	
CCOC1OC2O[C@]3(C)CCC4C(C)CCC([C@H]1C)C24OO3 (stereo partly specified)			inactive
C=CC1(CC[C@]2(c3ccc(OC)c(OC)c3)C=[N+]([O-])O[C@H](O[C@@H]3CCCC[C@H]3C(C)(C)c3ccccc3)C2)OCC(C)(C)CO1	> 200	11.2	
CC1CN=C(N(C(=O)Nc2ccc(Cl)cc2)c2cccc(Cl)c2)S1 (stereo unspecified)			inactive
[N-]=[N+]=C1C(=O)NC(=O)N2C3CC(O)C(COC12)O3 (stereo unspecified)	> 200	> 200	
COCC1OC2(CCC[C@@H]2O)O[C@H]1COC (stereo partly specified)			inactive
Cc1ccc(-c2c3nc(c(-c4ccc(C)cc4)c4ccc([nH]4)c(-c4ccc(C)cc4)c4nc(c(-c5ccncc5)c5ccc2[nH]5)C=C4)C=C3)cc1.Cc1ccc(-c2c3nc(c(-c4ccc(C)cc4)c4ccc([nH]4)c(-c4ccc(C)cc4)c4nc(c(-c5ccncc5)c5ccc2[nH]5)C=C4)C=C3)cc1.O=S(=O)([O-])C(F)(F)F.[Pt+2].c1ccc([PH+](CCC[PH+](c2ccccc2)c2ccccc2)c2ccccc2)cc1			inactive
O=C(CP(=O)(c1ccccc1)c1ccccc1)c1cccc(C(=O)CP(=O)(c2ccccc2)c2ccccc2)c1	> 200	158	
C[Si](C)(C)C(CCCCSc1ccccc1)(Sc1ccccc1)Sc1ccccc1			inactive
N#Cc1cccc(/C=C2\CCc3ccccc3C2=O)c1	> 28.2	20.9	
O=c1oc2nc3ccc(Cl)cc3c(=O)n2c2ccc(Cl)cc12	> 200	> 200	

SMILES	EC50 [µM]	IC50 [µM]	outcome
COc1ccc(/C(Cl)=C/c2cc(OC)ccc2OC)cc1	> 200	13.5	
CC(=O)OC1C(CNC(=O)N(C)N=O)OC(OC2(CNC(=O)N(C)N=O)OC(CNC(=O)N(C)N=O)C(OC(C)=O)C2OC(C)=O)C(OC(C)=O)C1OC(C)=O (stereo unspecified)	> 27.5	> 27.5	
CCCCN1C(=O)C(NC(C)=O)C1COC(C)(C)C (stereo unspecified)	> 479	> 479	
O=S(=O)(O)SCCNCCCCC1CCCCC1	> 200	10.2	
Cc1[nH]c(=O)[nH]c(=O)c1CN1CCCCC1	> 6.46	> 6.46	
O=C1COC(c2ccccc2O)=NN1CCCl	> 141	> 141	
CC(=O)OCC1OC(Sc2nc(-c3ccccc3)c(C#N)c(=O)n2C2OC(COC(C)=O)C(OC(C)=O)C(OC(C)=O)C2OC(C)=O)C(OC(C)=O)C(OC(C)=O)C1OC(C)=O (stereo unspecified)	> 151	19.5	
C[Si](C)(C)/C(I)=C/CO			inactive
O=C1NC(N2CCCCC2)=N/C1=C\c1ccco1	> 200	> 200	
[CH3][Sn]1([CH3])[O]C(=O)CCN=Cc2c(ccc3ccccc23)[O][Sn]([CH3])([CH3])[O]C(=O)CCN=Cc2c(ccc3ccccc23)[O]1	> 200	20	
Cc1csc(=Nc2ccccc2)n1CCC(O)(P(=O)(O)O)P(=O)(O)O	> 200	9.55	
COC(=O)C1C(C(=O)OC)C2N(c3ccccc3)C=NN2C1C(=O)c1ccccc1 (stereo unspecified)	182	> 200	
CCCNC(=O)CNC(=O)c1ccccc1SC(=O)CCCC[n+]1ccccc1	8.32	112	
CN(C)c1nc2oc(-c3ccccc3)c(-c3ccccc3)c2c2nnnn12			inactive
COc1cc(C2OCC3C(c4ccc(O)c(OC)c4)OCC23)ccc1O (stereo unspecified)			inactive
CCOC(=O)c1ccc(N=c2sc3ccccc3nc2Nc2ccc(C(=O)OCC)cc2)cc1	> 200	> 200	
O=C(O)CN1CCN(CC(=O)N2CCN(C(=O)OCc3ccccc3)CC2)CCN(CC(=O)O)CCN(CC(=O)N2CCN(C(=O)OCc3ccccc3)CC2)CC1	> 200	> 200	
[CH3][Sn]1([CH3])[O]CC(COc2cc(Cl)c(Cl)cc2Cl)[O]1 (stereo unspecified)	> 24	15.5	
NC1=NS(=O)(=O)N=C(N)C1=NNc1cccc(Cl)c1	> 832	138	
CC(=O)OC1C2C(=C(C)C(=O)O[C@@H]2c2ccoc2)[C@@]2(C)CC3CC(C)(C(=O)O3)C12 (stereo partly specified)	> 200	> 200	
O=[N+]([O-])c1ccc2nc(/C=C(\O)c3ccccc3)c(/C=C(\O)c3ccc(Cl)cc3)nc2c1	> 100	11	

SMILES	EC50 [µM]	IC50 [µM]	outcome
Cc1nc(=O)n2c(c1C(=O)Nc1ccc(Cl)cc1)NCCC2			inactive
COC(=O)c1cc(C(=O)OC)c(C/C(=N/NC(N)=S)C(=O)Nc2c(C)cccc2C)nc1CC(=Nc1c(C)cccc1C)NNC(N)=S	> 200	> 200	
CCOC(=O)c1cccc(=O)c(C(=O)OCC)c1			inactive
c1ccc(N2CC3CSc4ccc5ccccc5c4C3=N2)cc1 (stereo unspecified)	> 200	> 200	
CC(=O)OC(OC(C)=O)c1ncccc1C(=O)OC(C)C	> 851	112	
O=[N+]([O-])c1ccc(-n2nnc(C3=NCCN3)c2-c2ccccc2)cc1	> 30.2	> 30.2	
COC(=O)[C@]1(c2ccc(N(C)C)cc2OC)C[C@@H]2CCCN(CCc3c1[nH]c1ccccc31)C2			inactive
Cn1c(=Nc2ccc(Cl)cc2)sc2ccccc21	> 200	32.4	
CCC1(CC)COP(=O)(Oc2ccccc2)OC1	> 200	> 200	
COc1ccc(C2CC(c3c(O)ccc4ccccc34)=NN2C(C)=O)cc1OC (stereo unspecified)	> 200	46.8	
N#CCCC[P+](c1ccccc1)(c1ccccc1)c1ccccc1	> 200	> 200	
O=[N+]([O-])c1ccc(C(O)(C#CCN2CCCC2)c2ccccc2)cc1 (stereo unspecified)	> 200	> 100	
Nc1ncnc2c1ncn2[C@H]1C(CO)CC1(F)F (stereo partly specified)	> 182	> 182	
COc1ccc(/C=C2/C(=O)N(/C=C3\C(=O)Oc4ccccc4C3=O)C(=NC(C)=O)N2C)cc1OC	> 200	126	
C[N+](C)(C)CCC(=O)CC[N+](C)(C)C	> 8.32	> 8.32	
CSc1nc2c(n1-c1ccccc1)C(=O)C(OS(=O)(=O)c1ccccc1)C(=O)N2 (stereo unspecified)	> 200	> 200	
C[C@@H]1c2ccc3c(c2C2(O)C[C@H]4CCC1N2C4)CC1[C@H]3C[C@@H](O)C2C[C@@H](O)CC[C@@]21C (stereo partly specified)	> 30.9	> 30.9	
Cc1ccccc1-n1c2nc(=O)n(C)c(=O)c-2nc2ccccc21			inactive
Cc1ccc(SS(=O)(=O)c2ccc([N+](=O)[O-])cc2)cc1	> 60.3	40.7	
CC(=O)Nc1ccc(C(=O)N2N=C(C)/C(=C/c3ccccc3O)C2=O)cc1	> 51.3	> 51.3	
COc1cc(C2C3=C(CCCC3=O)N(c3ccc(C)cc3)C3=C2C(=O)CCC3)c([N+](=O)[O-])cc1OC	> 200	145	

SMILES	EC50 [µM]	IC50 [µM]	outcome
O=C(O)c1nn(-c2ccccn2)c(O)c1N=Nc1ccc(/C=C\c2ccc(N=Nc3c(C(=O)O)nn(-c4ccccn4)c3O)cc2S(=O)(=O)O)c(S(=O)(=O)O)c1	> 1.48	> 1.48	
CC12CCC(O)CC1=CCC1C2CCC2(C)C3=NN=CC3CC12 (stereo unspecified)	> 200	12	
NC(=O)c1nnc2ccc(F)cc2c1N	> 200	70.8	
Cc1nnc2n1N=C(c1ccc(O)c(O)c1O)CS2	> 200	20.4	
CCCCCCCCCCCC(=O)N(C)CCS(=O)(=O)O			inactive
Cc1nc(NC(C)(CO)CO)nc2c1C(=O)Nc1ccccc1N2	> 200	> 200	
CC(=S)N/C=C(\C#N)S(=O)(=O)c1ccc(C)cc1	> 200	> 200	
CCN(CC)c1cc(OCc2ccccc2)cc2c1[C@H]1COc3cc(OC)ccc3[C@H]1O2			inactive
CCCOC(=O)Nc1ccc2nc(N(C)C)sc2c1	> 245	66.1	
CCCCCCCCCCCCCCOCCS(=O)(=O)O	> 200	52.5	
CN(C)c1ccc(-c2ccc(N(C)C)c3n[se]nc23)c2n[se]nc12	> 200	> 200	
c1ccc(Nc2nnc(-c3ccccc3Nc3ccccc3-c3nnc(Nc4ccccc4)s3)s2)cc1	> 200	105	
O=C1CN(N2C(=O)CSC2C23CC4CC(CC(C4)C2)C3)C(=O)CN1c1ccccc1 (stereo unspecified)	> 151	> 151	
c1ccc(C(NC2CCCCC2NCCNC2CCCCC2NC(c2ccccc2)(c2ccccc2)c2ccccc2)(c2ccccc2)c2ccccc2)cc1 (stereo unspecified)	> 200	6.17	
NC(N)=NN=C(c1ccccc1)c1ccccc1	> 200	1.02	
CCCCn1[nH]c(=O)ccc1=O	> 1480	1410	
COC(=O)C1(C)CCc2c(OC)ccc(OC)c2C1=O (stereo unspecified)	120	324	
O=C(O)/C=C/S(=O)(=O)O	> 200	> 200	
CC(=O)N=C(N=Nc1c(O)[nH]c2ccc(C)cc12)NC(C)=O	> 200	148	
COc1ccc(-c2onc(-c3ccc([N+](=O)[O-])cc3)c2C2=NCCN2)cc1	> 12.9	> 12.9	

From PubChem BioAssay AID179 (DTP/NCI, 2004)
